The text below walks through data of US9656981B2, “Peripherally-acting cannabinoid receptor agonists for chronic pain” (The Regents of the University of California, priority 2012, dated 2017).

Read-outs that look alike come from different tables or passages of the source.

In one series the target is CB2R (Homo sapiens, UniProt P34972). The series is described as follows: CB2R radioligand displacement binding assay (CP55940 radioligand). The protocol: Detailed radioligand displacement assays (using the well-characterized CBR agonist […] as the radioligand) were conducted to determine the affinity (Ki) of the test compounds for CB1R and CB2R as has been previously described by our group^112,113. Heterologous competition binding assays were performed to calculate receptor affinities. Unlabeled SR141716 or SR144528 were used as appropriate controls for non-specific binding (NSB) in the assay. Calculation of the equilibrium dissociation constant (Ki) was performed using the Cheng-Prusoff equation.
(In general: Displacement assays read how much labelled ligand stays bound in the presence of the test substance.)

The next series concerns the target human CB1R (hCB1R) (Homo sapiens, UniProt P21554). The series is described as follows: human CB1R (hCB1R) calcium flux assay. It counts as cell-based. Particulars: Table 1; read-out: Ca Flux % Emax. From the text:
Compounds were first screened for: a) CB1R and CB2R binding, b) CB1R agonist activity using the human CB1R (hCB1R) calcium flux assay, and c) BBB permeability using the Madin-Darby canine kidney (MDCK-MDR1) cell line assay.
The calcium 3 dye assays were run according to manufacturer's specifications (http://www.moleculardevices.com/Products/Assay-Kits/GPCRs/FLIPR-Calcium.html) and as reported in our previous publications^112,113. Briefly, wells of black clear-bottom 96-well tissue culture-treated plates are seeded with 20,000 cells the afternoon before assay. The day of assay, the cells are incubated with the Ca^2+ indicator dye for 1 hr @ 37° C. For antagonist assays, the test compound is preincubated with the cells during the last 10 min of the dye incubation. Basal or unstimulated fluorescence intensity is recorded in the FlexStation @ 37° C. for 13 sec followed by the addition of test compound or CP 55,940 (depending on the assay endpoint). Fluorescence intensity is recorded for an additional 47 sec. The effect of test compound in each well is determined by subtracting the minimum from the maximum fluorescence during the 47-sec recording period.
(Calcium assays in cells follow changes in intracellular calcium, usually with a dye or a luminescent sensor.)

The target in the next series is CB1R (Homo sapiens, UniProt P21554). The series is described as follows: CB1R radioligand displacement binding assay (CP55940 radioligand). The procedure:
Heterologous competition binding assays were performed to calculate receptor affinities. Unlabeled SR141716 or SR144528 were used as appropriate controls for non-specific binding (NSB) in the assay. Calculation of the equilibrium dissociation constant (Ki) was performed using the Cheng-Prusoff equation.

Series [1] in a line: S9 fraction stability assay. It counts as in vitro ADME. The settings on record: rat liver S9, 10 μM. The protocol:
Compounds are incubated at 10 μM in rat (male Sprague Dawley) liver S9 at 37° C. Each compound is prepared in ethanol at a concentration of 1 mM. An assay mixture containing S9 (1 mg protein/mL final concentration) and an NADPH regenerating system (NADP [1 mM final], glucose 6-phosphate [5 mM final] and glucose 6-phosphate dehydrogenase [1 U/mL final]) in a buffer consisting of 50 mM KPO4 phosphate buffer, pH 7.4 with 3 mM MgCl2 is prepared and preincubated at 37° C. for 5 min. A 10 μL volume of the 1 mM solution is added to 990 μL of assay mixture in a glass test tube @ 37° C. to initiate the assay. Samples (50 μL) are removed at 0, 15, 30, 60 and 120 min and immediately extracted with 3 volumes (150 μL) of methanol, centrifuged to pellet protein and supernatants transferred to LC/MS vials for analysis.

Series [2] has as its system rats. The series is described as follows: Hypothermia test of the tetrad. Type of series: in vivo, rat. The settings on record: 2-3 hr. The procedure:
Rats are acclimated to a plastic restrainer apparatus (Model RTV-180 Braintree Scientific Inc.) on the day of testing by placing them in the restrainer twice for 5 min separated by 20 min. Baseline core temperature is taken before treatment, and the rectal temperature is measured again at various times after injection of the CB1R ligands.

For series [3], the system named is rats. Put plainly: Catalepsy (ring) test of the tetrad. It counts as in vivo, rat. The protocol:
Catalepsy (ring) test. Catalepsy was determined with a ring immobility test^154, modified for rats^139, 153. Rats are placed with their forepaws on a horizontal metal ring (12 cm diameter) at a height that allows their hindpaws to just touch the bench surface. Immobility is recorded as the time for the rat to move off the ring with a 100 s cutoff. Rats are tested before vehicle/drug injections and again at various times after injection.

The nature of a further series: Plasma stability assay. Type of series: in vitro ADME. Particulars: rat plasma, 10 μM. The protocol:
Compounds are incubated at 10 μM in rat plasma at 37° C. A solution of each compound is prepared in ethanol at a concentration of 1 mM. A 2.5 μL volume of the 1 mM solution is added to 247.5 μL of rat plasma (male Sprague Dawley) in a glass test tube in a 37° C. water bath. Samples (50 μL) are removed at 0, 30 and 60 min and immediately extracted with 3 volumes (150 μL) of methanol. Samples are centrifuged (2500 rpm for 10 min at 4° C.) to pellet protein and supernatants transferred to LC/MS vials for analysis. Samples are stored at −80° C. prior to analysis.

Series [4] deals with sciatic nerve entrapment (SNE) neuropathy. The series is described as follows: SNE neuropathy, mechanical allodynia (von Frey). It counts as in vivo, rat. The settings on record: 0.3 mg/kg. The protocol:
The effectiveness of CBR agonists was tested for alleviating the painful symptoms of neuropathy induced by unilateral sciatic nerve entrapment (SNE)^131. The peripheral neuropathy induced by SNE is highly comparative to that of chronic constriction injury (CCI), which uses chromic gut suture materials instead of polyethylene cuffs^132. […] This increased excitability is at least in part attributable to injury-induced post-transcriptional transport of the voltage-gated sodium channel 1.8 (NaV1.8) mRNA, axonal accumulation of NaV1.8 mRNA, and its local protein translation leading to the increased NaV1.8 functional expression in injured nerve^136. The hyperexcitability and ectopic burst discharge of primary sensory neurons are widely considered to be the major contributors to pain symptomatology of peripheral neuropathy models. The SNE-induced mechanical allodynia effectively models the most common complaint of human neuropathy patients of dynamic mechanical allodynia. Behavioral measurements of mechanical sensitivity were conducted before and after induction of SNE as follows:
Rats are placed in a plastic-walled cage (10×20×13 cm) with a metal mesh floor (0.6×0.6 cm holes) and allowed to acclimate for 10 min. The amount of pressure (g) needed to evoke a hindpaw withdrawal response is measured 4 times on each paw separated by 30-s intervals using a von Frey-type digital meter (Model 1601C, IITC Instr.). Results of 4 tests/session are averaged for each paw.

The test system of series [5] is rats. The series is described as follows: Rotarod test of the tetrad. It counts as in vivo, rat. The procedure: Rats were tested for motor function and the ataxic effects of novel drugs as described previously^151-153. To determine drug effects on motor coordination, rats are trained 72 h before the test (3 sessions 24 h apart) to remain for at least 180 s on a rotarod revolving at an acceleration of 4-40 revs over 5 min). Rats are tested immediately before vehicle or drug injections and tested again at 2, 6, 24 and 48 hrs after injection. The time for which the rats are able to remain on the rotarod is recorded up to a cut-off of 5 min.
For orientation: Falling from the rotarod earlier than controls is read as motor impairment.

Series [6] concerns rats. The series is described as follows: Tetrad assays overall (CNS-mediated side effects). It counts as in vivo, rat. Particulars: doses effective against neuropathy symptoms, i.p. From the text: The CNS-mediated psychotropic actions of CB1R ligands represent their most troubling side effects. The cannabinoid agonists such as Δ9-THC or anandamide produce a complex pattern of behavioral effects which are unique to this class of compounds: at low doses a mixture of stimulatory and depressant effects is observed, while at higher doses central depression predominates^137,138. The tetrad of tests which is classically predictive of cannabinoid receptor activation includes: catalepsy, motor performance, hypothermia, and analgesia tests^139-141. Effects observed in all four tests have been thought to be mediated by the activation of central CBRs, but it is now well established that peripheral CBRs make a major contribution to the analgesic effects of cannabinoids^142-144. The catalepsy and motor deficits induced by CB1R ligands are likely produced by their action on CB1Rs within the basal ganglia and cerebellum, while hypothermia is thought to be mediated mainly through hypothalamic and brainstem CB1Rs^137, 145-150. […] Therefore, “tetrad” tests were used to determine whether the novel CB1R ligands have antinociceptive effects and side-effect profile consistent with the activation of central CB1Rs. […]

Setting [7] is: Table 1, CP55940 radioligand, read-out: CB2_KI_CP.
Setting [8] is: Table 1, CP55940 radioligand, read-out: CB1_KI_CP.
Setting [9] is: read-out: CB1R binding affinity (Ki).

Chain of CB2R (P34972 whole entry): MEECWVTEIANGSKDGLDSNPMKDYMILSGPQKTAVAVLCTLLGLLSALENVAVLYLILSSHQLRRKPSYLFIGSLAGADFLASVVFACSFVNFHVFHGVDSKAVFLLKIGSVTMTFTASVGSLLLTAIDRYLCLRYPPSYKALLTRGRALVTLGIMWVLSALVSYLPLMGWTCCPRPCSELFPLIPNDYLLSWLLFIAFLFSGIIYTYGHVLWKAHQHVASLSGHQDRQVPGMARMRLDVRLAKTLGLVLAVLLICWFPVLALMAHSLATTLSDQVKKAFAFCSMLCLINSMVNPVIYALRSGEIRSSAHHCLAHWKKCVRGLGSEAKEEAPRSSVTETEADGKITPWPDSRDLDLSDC
Chain of human CB1R (hCB1R) (P21554 whole entry): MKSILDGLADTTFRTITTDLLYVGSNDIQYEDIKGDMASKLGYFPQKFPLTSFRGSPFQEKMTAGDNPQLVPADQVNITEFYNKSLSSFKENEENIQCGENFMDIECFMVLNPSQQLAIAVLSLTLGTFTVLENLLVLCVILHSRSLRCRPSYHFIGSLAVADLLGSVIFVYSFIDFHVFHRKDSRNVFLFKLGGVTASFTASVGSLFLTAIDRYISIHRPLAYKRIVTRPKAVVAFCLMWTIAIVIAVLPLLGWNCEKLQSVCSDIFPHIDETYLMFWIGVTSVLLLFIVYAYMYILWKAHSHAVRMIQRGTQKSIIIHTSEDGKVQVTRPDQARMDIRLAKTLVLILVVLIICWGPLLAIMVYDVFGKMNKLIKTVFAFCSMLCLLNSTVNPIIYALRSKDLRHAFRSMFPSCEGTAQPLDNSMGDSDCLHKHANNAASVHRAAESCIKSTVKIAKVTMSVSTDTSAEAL
Chain of CB1R (P21554 whole entry): as above

With `CCc1ccc(/C=C2\C=C(CCN3CCOCC3)c3ccccc32)c2ccccc12` [Compound 8, 4-{2-[(1E)-1-[(4-ethylnaphthalen-1-yl)methylidene]-1H-inden-3-yl]ethyl} morpholine], the results for the Ki on CB2R (setting [7]), at CB1R and on CB1R (setting [8]) were 0.79 nM, 1 nM and 0.86 nM, respectively. Moreover, at human CB1R (hCB1R), the Emax (as a rule, the size of the effect at its maximum, as opposed to the concentration needed) is 121%.

`C1=C(CCN2CCOCC2)c2ccccc2/C1=C/c1cccc2ccccc12` [Compound 11, 4-{2-[(1E)-1-(naphthalen-1-ylmethylidene)-1H-inden-3-yl]ethyl} morpholine]: the “S9% remaining @ xy min” value in series [1] (30 min) is 35 @ 30%. The Ki at CB2R (setting [7]) is 5.62 nM; at CB1R (setting [9]), 4.69 nM. In addition, the Emax at human CB1R (hCB1R) worked out at 103%. For the same molecule, the “Hypothermia % change from predrug (0.3 mg/kg) at 2-3 hr” value in the series on rats [2] was 0%. Moreover, the “effect in the catalepsy assay” value in the series with rats [3] (0.3 mg/kg, intraperitoneal) is on record as “complete lack of effects”. In the series on rats [3], the “Catalepsy % change from pre-drug (0.3 mg/kg) at 1-3 hrs” value came to 0%. For the same molecule, in the series “Plasma stability assay” (30 min), the “Plasma % remaining @ xy min” value is 95 @ 30%. The “effect on SNE-induced mechanical allodynia (ipsilateral hindpaw withdrawal thresholds)” value in series [4] (systemic injection) is given as “anti-allodynic effects”. The “SNE Neuropath Assay-% return to pre-drug (0.3 mg/kg) contralateal threshold at 2-3 h” value (“SNE Neuropath Assay-% return to pre-drug” below) in series [4] came out at 37.8%. Further, the “effect on contralateral hindpaw withdrawal thresholds” value in series [4] (hindpaw contralateral to SNE) is on record as “Neither ENMI nor 13339-135-25 had any significant effect”. The “effect in the rotarod assay” value in the series on rats [5] (0.3 mg/kg, intraperitoneal) is reported as “complete lack of effects”. In the series on rats [5], the “Rotarod % change from pre-drug (0.3 mg/kg) at 2-3 hr” value is 0%.

As for `CCCCCn1cc(C(=O)c2ccc(C(=O)OC)c3ccccc23)c2ccccc21` [Compound 54, methyl 4-(1-pentyl-1H-indole-3-carbonyl) naphthalene-1-carboxylate], the “S9% remaining @ xy min” value in series [1] (30 min) was 2.62 @ 30%; in series [1] (30 min, listed as 4-carbomethoxy ester), 3%. For the same molecule, the Ki on CB2R turned out to be 73.4 nM; at CB1R (setting [9]) it was 20 nM. Moreover, the “Plasma % remaining @ xy min” value in “Plasma stability assay” (30 min) is 9.6 @ 30%. Also, the “SNE Neuropath Assay-% return to pre-drug” value in series [4] was 0%.

For `CCCCCn1cc(C(=O)c2cccc3ccccc23)c2c(F)cccc21` [Compound 62, 4-fluoro-3-(naphthalene-1-carbonyl)-1-pentyl-1H-indole], in [1] (60 min), the “S9% remaining @ xy min” value is on record as 5 @ 60%. Moreover, the figures for the Ki at CB2R (setting [7]) and at CB1R (setting [8]) were 35.6 nM and 6.5 nM, respectively. In “Plasma stability assay” (60 min), the “Plasma % remaining @ xy min” value was 69 @ 60%.

As for `CCCCCn1cc(C(=O)c2cccc3ccccc23)c2cc(F)ccc21` [Compound 63, 5-fluoro-3-(naphthalene-1-carbonyl)-1-pentyl-1H-indole], in [1] (60 min), the “S9% remaining @ xy min” value was 13 @ 60%. For the same molecule, the Ki at CB2R (setting [7]) worked out at 65 nM; at CB1R (setting [8]) it was 9.85 nM. Further, the “Plasma % remaining @ xy min” value in the series “Plasma stability assay” (60 min) is 99 @ 60%.

Consider `CCCCCn1cc(C(=O)c2cccc3ccccc23)c2cccc(F)c21` [Compound 65, 7-fluoro-3-(naphthalene-1-carbonyl)-1-pentyl-1H-indole], for which the “S9% remaining @ xy min” value in series [1] (30 min) is listed as roughly 58%; in [1] (60 min), 50%; in series [1] (120 min) it was 36%. The values for the Ki at CB2R (setting [7]) and on CB1R (setting [8]) were 2.7 nM and 3.62 nM, respectively. Besides, the Emax on human CB1R (hCB1R) was 79%. In addition, the “Hypothermia % change from predrug (0.3 mg/kg) at 2-3 hr” value in the series on rats [2] came out at 0%. In the series on rats [3], the “Catalepsy % change from pre-drug (0.3 mg/kg) at 1-3 hrs” value is given as 0%. In the series “Plasma stability assay” (60 min), the “Plasma % remaining @ xy min” value is reported as 97 @ 60%. In addition, the “SNE Neuropath Assay-% return to pre-drug” value in [4] was 18.6%. For the same molecule, in the series with rats [5], the “Rotarod % change from pre-drug (0.3 mg/kg) at 2-3 hr” value came to 0%.

Take `CCCc1ccc(C(=O)c2cn(CCCCCF)c3cccc(F)c23)c2ccccc12` [Compound 67, 4-fluoro-1-(5-fluoropentyl)-3-(4-propyl-naphthalene-1-carbonyl)-1H-indole]: the “S9% remaining @ xy min” value in series [1] (60 min) is given as 6 @ 60%. Besides, the Ki at CB2R is 3.61 nM; at CB1R (setting [8]) it was 2.55 nM. Also, the “Plasma % remaining @ xy min” value in the series “Plasma stability assay” (60 min) is recorded as 95 @ 60%.

On to `CCCCCCC(C)(C)c1cc(O)c2c(c1)OC(C)(C)[C@@H]1CC=C(CO)C[C@@H]21` [HU-210], for which, in the series with rats [6], the “CNS side effects in the tetrad assays” value was “potent CNS side effects”.
